Test results as given in patent US20250214969A1, “PROTEIN DEGRADERS AND USES THEREOF” (Kymera Therapeutics, Inc., priority 2022, published 2025).

Legend:
[1] = target: T1, truncated His-MBP-Tev-KLHDC2 (residues 1-363) (Homo sapiens, UniProt Q9Y2U9); experiment: KLHDC2 HTRF binding assay; conditions: 1 nM KLHDC2 (residues 1-363), fluorescein-labeled diglycine peptide probe
T1 construct: truncated His -MBP-Tev-KLHDC2 (residues 1-363) purified from E. coli; made in house; host or cells: E. coli
T1 sequence (Q9Y2U9 1-363): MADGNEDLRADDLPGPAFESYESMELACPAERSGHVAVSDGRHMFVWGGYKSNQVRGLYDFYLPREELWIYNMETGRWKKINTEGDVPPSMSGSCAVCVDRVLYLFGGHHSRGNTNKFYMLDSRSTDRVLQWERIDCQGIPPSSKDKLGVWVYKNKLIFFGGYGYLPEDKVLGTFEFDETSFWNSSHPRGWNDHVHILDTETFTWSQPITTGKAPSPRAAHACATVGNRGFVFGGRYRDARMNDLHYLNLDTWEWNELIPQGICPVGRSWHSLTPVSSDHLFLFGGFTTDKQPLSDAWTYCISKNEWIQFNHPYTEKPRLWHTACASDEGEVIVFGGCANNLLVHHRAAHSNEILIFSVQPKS
Method: HTRF binding assays were performed using 1 nM truncated His -MBP-Tev-KLHDC2 (residues 1-363) purified from E. coli, 0.2 nM terbium-anti-His antibody (CisBio), 1 nM fluorescein-labeled diglycine peptide probe, and test compounds in assay buffer consisting of 50 mM HEPES-Na pH 7.5, 100 mM NaCl, 2 mM DTT, 0.005% Tween-20 with a final volume of 20 uL. Compound stocks were dissolved at 10 mM in 100% DMSO and 11 point titration with 3 fold serial dilution was performed in white, opaque 384 well microplates. Reaction plates were incubated at room temperature for 30 minutes. Plates were centrifuged at low rpm for 5 mins, and the ratio of fluorescence intensities were measured at emission wavelengths for fluorescein acceptor (520 nm) and terbium donor (495 nm) on Envision Plate reader. % Inhibition was calculated from the 520/495 ratio generated by the no protein controls for 100% inhibition and DMSO only reactions for 0l % inhibition.

[2] = target: T1, truncated His-MBP-Tev-KLHDC2 (residues 1-363); experiment: KLHDC2 FP competition binding assay; conditions: 15 nM KLHDC2 (residues 1-363), 10 nM fluorescein-labeled diglycine peptide probe, read-out: KLHDC2 binding Human FP: average external IC50

Row | Compound | IC50 [1] | IC50 [2]
1 | C[C@H](C(=O)O)n1cc(NC(=O)c2cccc(-c3cccnc3)c2)ccc1=O [I-72] | 0.5 to 5 µM | > 5 µM
2 | O=C(O)Cn1cc(NC(=O)COc2ccc(C(F)(F)F)cc2)ccc1=O [I-256] | > 5 µM | > 5 µM
3 | O=C(O)Cn1cc(NC(=O)COc2cccc3cnccc23)ccc1=O [I-251] | > 5 µM | > 5 µM
4 | CS(=O)(=O)NC(=O)Cn1cc(NC(=O)c2cccc(-c3cccnc3)c2)ccc1=O [I-78] | > 5 µM | > 5 µM
5 | Cc1cc(-c2ccc(=O)n(CC(=O)O)c2)ccc1OCc1ccccc1 [I-323] | > 5 µM | > 5 µM
6 | O=C(O)Cn1cc(-c2cccc(CO)c2)ccc1=O [I-291] | > 5 µM | > 5 µM
7 | O=C(O)Cn1cc(-c2ccc(F)cc2F)ccc1=O [I-370] | > 5 µM | > 5 µM
8 | O=C(O)Cn1cc(-c2cccc(Cl)c2)ccc1=O [I-375] | > 5 µM | > 5 µM
9 | O=C(O)Cn1cc(Nc2nccc3c(-c4cccnc4)cccc23)ccc1=O [I-93] | > 5 µM | > 5 µM
10 | NCCCCCCc1ccncc1-c1cccc(C(=O)Nc2ccc(=O)n(CC(=O)O)c2)c1 [I-163] | 0.5 to 5 µM | 0.5 to 5 µM
11 | O=C(O)C1CC(=O)N(C2CC2)C1 (centres unmarked) [I-216] | > 5 µM | > 5 µM
12 | O=C(O)Cn1cc(-c2cccs2)ccc1=O [I-424] | > 5 µM | > 5 µM
13 | O=C(O)Cn1cc(NC(=O)c2cccc(-c3cccnc3)c2C(F)(F)F)ccc1=O [I-10] | 0.5 to 5 µM | > 5 µM
14 | COc1cc(-c2ccc(Cl)cc2)ccc1C(=O)Nc1ccc(=O)n(CC(=O)O)c1 [I-134] | 0.05 to 0.5 µM | 0.5 to 5 µM
15 | Cc1sc2c(c1C)C(c1ccc(Cl)cc1)=N[C@@H](CC(=O)NCCCCCCc1cncc(-c3cccc(C(=O)Nc4ccc(=O)n(CC(=O)O)c4)c3)c1)c1nnc(C)n1-2 [I-477] | < 0.05 µM | < 0.05 µM
16 | CCc1cncc(N2CCC[C@H](C(=O)Nc3ccc(Cl)c(CC(=O)O)c3)C2)c1 [I-21] | 0.05 to 0.5 µM | 0.5 to 5 µM
17 | Cc1nn(-c2ccc(F)cc2F)c(C)c1CC(=O)Nc1ccc(=O)n(CC(=O)O)c1 [I-246] | > 5 µM | > 5 µM
18 | O=C(O)Cn1cc(NC(=O)CCCc2ccc(C3CC3)cc2)ccc1=O [I-239] | 0.5 to 5 µM | > 5 µM
19 | CCOC(=O)Cn1cc(NC(=O)c2cccc(-c3cnccc3CCCCCCN)c2)ccc1=O [I-152] | > 5 µM | > 5 µM
20 | O=C(O)Cn1cc(N2CCc3cccc(-c4cccnc4)c3C2=O)ccc1=O [I-74] | > 5 µM | > 5 µM
21 | NCCCCCCCCCc1cccc2c(-c3cccc(C(=O)Nc4ccc(=O)n(CC(=O)O)c4)c3)cncc12 [I-109] | 0.05 to 0.5 µM | > 5 µM
22 | COc1cncc(N2CCC[C@H](C(=O)Nc3ccc(F)c(CC(=O)O)c3)C2)c1 [I-24] | 0.05 to 0.5 µM | 0.05 to 0.5 µM
23 | N#Cc1cc(=O)n(CC(=O)O)cc1NC(=O)[C@H]1CCCN(c2cccnc2)C1 [I-26] | 0.05 to 0.5 µM | 0.5 to 5 µM
24 | O=C(O)Cn1cc(-c2cccc(C(F)(F)F)c2)ccc1=O [I-381] | > 5 µM | > 5 µM
25 | Cc1ccc2cc(C(=O)Nc3ccc(=O)n(CC(=O)O)c3)cnc2c1 [I-189] | > 5 µM | > 5 µM
26 | Cc1sc2c(c1C)C(c1ccc(Cl)cc1)=N[C@@H](CC(=O)NCCCCCCc1ccncc1-c1cccc(C(=O)Nc3ccc(=O)n(CC(=O)O)c3)c1)c1nnc(C)n1-2 [I-475] | 0.05 to 0.5 µM | < 0.05 µM
27 | Nc1ccc2cc(C(=O)Nc3ccc(=O)n(CC(=O)O)c3)ccc2c1 [I-151] | 0.5 to 5 µM | > 5 µM
28 | O=C(O)Cn1cc(NC(=O)COc2cccc(C(F)(F)F)c2)ccc1=O [I-252] | > 5 µM | > 5 µM

Row | Compound | IC50 [1] | IC50 [2]
29 | Cc1ccc(C(=O)Nc2ccc(=O)n(CC(=O)O)c2)cc1-c1ccccc1 [I-269] | 0.5 to 5 µM | > 5 µM
30 | O=C(O)Cn1cc(NC(=O)C(c2ccccc2)c2ccccc2)ccc1=O [I-328] | > 5 µM | > 5 µM
31 | O=C(O)Cn1cc(NC(=O)[C@H]2CCCN(c3cncc([N+](=O)[O-])c3)C2)ccc1=O [I-4] | < 0.05 µM | < 0.05 µM
32 | O=C(O)Cn1cc(N2Cc3ccc(-c4cccnc4)cc3C2=O)ccc1=O [I-81] | > 5 µM | > 5 µM
33 | O=C(O)CC(C(=O)n1ccc2ccccc21)c1ccc(=O)n(CC(=O)O)c1 (centres unmarked) [I-184] | > 5 µM | > 5 µM
34 | O=C(O)Cn1cc(NC(=O)c2ccc(-c3ccccc3)s2)ccc1=O [I-249] | 0.5 to 5 µM | > 5 µM
35 | O=C(O)Cn1cc(NC(=O)c2nccc(-c3cccnc3)n2)ccc1=O [I-85] | 0.5 to 5 µM | 0.5 to 5 µM
36 | CCOC(=O)Cn1cc(NC(=O)c2cccc(-c3cccnc3)c2)ccc1=O [I-98] | > 5 µM | > 5 µM
37 | O=C(O)Cn1cc(NC(=O)c2cccc(-c3cccnc3)c2)c(C2CC2)cc1=O [I-62] | 0.5 to 5 µM | > 5 µM
38 | N#CCn1cc(NC(=O)c2cccc(-c3cccnc3)c2)ccc1=O [I-69] | > 5 µM | > 5 µM
39 | Cc1cccc(-c2ccc(=O)n(CC(=O)O)c2)c1 [I-422] | > 5 µM | > 5 µM
40 | Cc1cc(O)ccc1-c1ccc(=O)n(CC(=O)O)c1 [I-346] | > 5 µM | > 5 µM
41 | NCCCCCCc1ccc(C(=O)Nc2ccc(=O)n(CC(=O)O)c2)cc1-c1cccnc1 [I-144] | 0.5 to 5 µM | 0.5 to 5 µM
42 | Cc1ccc(C)c(-c2ccc(O)c(CC(=O)O)c2)c1 [I-338] | > 5 µM | > 5 µM
43 | O=C(O)Cn1cc(NC(=O)c2ccccc2C(F)F)ccc1=O [I-321] | > 5 µM | > 5 µM
44 | O=C(O)Cn1cc(NC(=O)[C@H]2CCCN(c3cccnc3)C2)ccc1=O [I-91] | < 0.05 µM | 0.05 to 0.5 µM
45 | O=C(O)Cn1cc(NC(=O)[C@@H]2CN(c3cccnc3)Cc3ccccc32)ccc1=O [I-34] | > 5 µM | > 5 µM
46 | Cc1cccc(-c2cccn(CC(=O)O)c2=O)c1 [I-391] | > 5 µM | > 5 µM
47 | O=C(O)Cn1cc(NC(=O)c2ccc(-c3ccccc3Cl)o2)ccc1=O [I-255] | > 5 µM | > 5 µM
48 | O=C(O)Cn1cc(NC(=O)c2cccc(-c3cccnc3)c2)c(C(F)(F)F)cc1=O [I-73] | 0.5 to 5 µM | > 5 µM
49 | COc1ncc(-c2ccc(=O)n(CC(=O)O)c2)cn1 [I-362] | > 5 µM | > 5 µM
50 | Nc1ccc(F)c2c(O)n[nH]c12 [I-427] | 0.5 to 5 µM | > 5 µM
51 | CNC(=O)c1ccc(-c2cccc(C(=O)Nc3ccc(=O)n(CC(=O)O)c3)c2)cc1 [I-193] | > 5 µM | > 5 µM
52 | Cc1sc2c(c1C)C(c1ccc(Cl)cc1)=N[C@@H](CC(=O)NCCCCCCc1cc(C(=O)Nc3ccc(=O)n(CC(=O)O)c3)cc(-c3cccnc3)c1)c1nnc(C)n1-2 [I-476] | 0.05 to 0.5 µM | < 0.05 µM
53 | O=C(O)Cn1cc(NC(=O)c2cccc(-c3ccccc3)c2)ccc1=O [I-315] | 0.5 to 5 µM | > 5 µM
54 | COc1cccc2c(N3CCC[C@H](C(=O)Nc4ccc(F)c(CC(=O)O)c4)C3)cncc12 [I-6] | < 0.05 µM | 0.05 to 0.5 µM
55 | CC(C)Cn1ncc2c(C(=O)Nc3ccc(=O)n(CC(=O)O)c3)cccc21 [I-136] | 0.5 to 5 µM | > 5 µM
